Laboratory results from ChEMBL document CHEMBL5257121, “Discovery of arylsulfonamides as a novel class of allosteric integrase inhibitors with antiviral activity” (Bioorg Med Chem Lett, 2023).

Legend:
[1] = test system: Human immunodeficiency virus 1; assay: Antiviral activity against HIV-1; assay type: functional, organism-based
[2] = test system: Human immunodeficiency virus 1; assay: Antiviral activity against early stage HIV-1 assessed as disruption of proviral integration; assay type: functional, organism-based
[3] = test system: Human immunodeficiency virus 1; assay: Antiviral activity against late stage HIV-1 assessed as inhibition of viral replication; assay type: functional, organism-based
[4] = test system: Human immunodeficiency virus 1; assay: Selectivity ratio of IC50 for antiviral activity against early stage HIV-1 to IC50 for antiviral activity against late stage HIV-1; assay type: functional
[5] = Allosteric inhibition of LEDGF binding to HIV integrase by InLEAD assay; set-up: species or system Human immunodeficiency virus

| Structure (SMILES) | IC50 [1] [µM] | IC50 [2] [µM] | IC50 [3] [µM] | Ratio IC50 [4] | IC50 [5] [µM] |
| --- | --- | --- | --- | --- | --- |
| CC(C)(C)NS(=O)(=O)c1ccccc1-c1cccc(C(=O)Nc2ccc(CCC(=O)O)cc2)c1 | 6.53 | > 42 | 12 | >3.6 | 3.74 |
| COc1ccc(NC(=O)c2cccc(-c3ccccc3S(=O)(=O)NC(C)(C)C)c2)c(C)c1 | 5.03 |  |  |  | 1.91 |
| COc1ccc(NC(=O)c2cncc(-c3c(C)cccc3S(=O)(=O)NC(C)(C)C)c2)cc1 | 1.4 | 25.2 | 2.7 | 9.3 | 1.29 |
| COc1ccc(NC(=O)c2cccc(-c3ccccc3S(=O)(=O)NC(C)(C)C)n2)cc1 | 11.2 |  |  |  | > 33.8 |
| COc1ccc(NC(=O)c2cccc(-c3ccccc3S(=O)(=O)NC3(C)CCC3)c2)cc1 | 5.79 |  |  |  | 2.23 |
| COc1ccc(NC(=O)c2cncc(-c3ccc(C)cc3S(=O)(=O)NC(C)(C)C)c2)cc1 | 10.8 |  |  |  | > 67.5 |
| COC(=O)CCc1ccc(NC(=O)c2cccc(-c3ccccc3S(=O)(=O)NC(C)(C)C)c2)cc1 | 4.91 |  |  |  | 1.45 |
| CC(C)(C)NS(=O)(=O)c1ccccc1-c1cncc(C(=O)Nc2ccc(CCC(=O)O)cc2)c1 | 9.31 |  |  |  | 1.29 |
| CC(C)(C)NS(=O)(=O)c1ccccc1-c1cncc(C(=O)Nc2ccc(CCC(=O)NCCNC(=O)c3ccc4c(c3)C(=O)OC43c4ccc(O)cc4Oc4cc(O)ccc43)cc2)c1 |  |  |  |  | 0.368 |
| Cc1ccc(NC(=O)c2cccc(-c3ccccc3S(=O)(=O)NC(C)(C)C)c2)c(C)c1 | 5.1 |  |  |  | 1.05 |
| COC(=O)C(Cc1ccccc1)NC(=O)CCc1ccc(NC(=O)c2cncc(-c3ccccc3S(=O)(=O)NC(C)(C)C)c2)cc1 (stereo not drawn) | 3 |  |  |  | 3.22 |
| COc1ccc(NC(=O)c2cccc(-c3ccccc3S(=O)(=O)NC3(C)CC3)c2)cc1 | 5.81 |  |  |  | 5.97 |
| COc1ccc(NC(=O)c2cc(-c3ccccc3S(=O)(=O)NC(C)(C)C)ccn2)cc1 | 6.35 |  |  |  | 3.79 |
| COc1ccc(NC(=O)c2cccc(-c3ccccc3S(=O)(=O)NC(C)(C)C)c2)cc1 | 10.9 |  |  |  | 3.69 |
| COc1ccc(NC(=O)c2cccc(-c3ccccc3S(=O)(=O)NC(C)(C)C(C)(C)C)c2)cc1 | 27.7 |  |  |  | > 22.5 |
| COc1ccc(NC(=O)c2cncc(-c3cc(C)ccc3S(=O)(=O)NC(C)(C)C)c2)cc1 | 15.6 |  |  |  | 8.85 |
| CCC(C)(C)NS(=O)(=O)c1ccccc1-c1cccc(C(=O)Nc2ccc(OC)cc2)c1 | 7.19 |  |  |  | 17.3 |
| CC(C)(C)NS(=O)(=O)c1ccccc1-c1cncc(C(=O)Nc2ccc(CCCC(=O)O)cc2)c1 | 7.86 |  |  |  | 1 |
| COc1ccc(NC(=O)c2cc(-c3ccccc3S(=O)(=O)NC(C)(C)C)ccc2Cl)cc1 | > 42 |  |  |  | > 67.5 |
| COc1ccc(NC(=O)c2cncc(-c3cccc(C)c3S(=O)(=O)NC(C)(C)C)c2)cc1 | 16.1 |  |  |  | > 67.5 |
| Cc1ccc(-c2c([C@H](OC(C)(C)C)C(=O)O)c(C)nc3ccccc23)cc1C |  | 1.67 | 0.031 | 53.9 | 0.037 |
| COc1ccc(NC(=O)c2cncc(-c3ccccc3S(=O)(=O)NC(C)(C)C)c2)cc1 | 7.93 | 27.3 | 5.09 | 5.4 | 1.29 |
| COCC1(NS(=O)(=O)c2ccccc2-c2cccc(C(=O)Nc3ccc(OC)cc3)c2)CCCC1 | 5.15 | 16.3 | 7.15 | 2.3 | > 67.5 |
| COc1ccc(NC(=O)c2cccc(-c3ccccc3S(=O)(=O)NC(C)(C)CC(C)(C)C)c2)cc1 | 2.91 |  |  |  | > 67.5 |
| COc1ccc(NC(=O)c2cc(-c3ccccc3S(=O)(=O)NC(C)(C)C)ccc2F)cc1 | 9.43 |  |  |  | 2.81 |
